Where a name gives a salt, the structure may show the parent alone.
What follows are molecules tested against LsrK (Salmonella typhimurium, UniProt Q8ZKQ6) (assay: biochemical). Details: not given.
Type: biochemical, S. typhimurium

Chain of LsrK (Q8ZKQ6 whole entry): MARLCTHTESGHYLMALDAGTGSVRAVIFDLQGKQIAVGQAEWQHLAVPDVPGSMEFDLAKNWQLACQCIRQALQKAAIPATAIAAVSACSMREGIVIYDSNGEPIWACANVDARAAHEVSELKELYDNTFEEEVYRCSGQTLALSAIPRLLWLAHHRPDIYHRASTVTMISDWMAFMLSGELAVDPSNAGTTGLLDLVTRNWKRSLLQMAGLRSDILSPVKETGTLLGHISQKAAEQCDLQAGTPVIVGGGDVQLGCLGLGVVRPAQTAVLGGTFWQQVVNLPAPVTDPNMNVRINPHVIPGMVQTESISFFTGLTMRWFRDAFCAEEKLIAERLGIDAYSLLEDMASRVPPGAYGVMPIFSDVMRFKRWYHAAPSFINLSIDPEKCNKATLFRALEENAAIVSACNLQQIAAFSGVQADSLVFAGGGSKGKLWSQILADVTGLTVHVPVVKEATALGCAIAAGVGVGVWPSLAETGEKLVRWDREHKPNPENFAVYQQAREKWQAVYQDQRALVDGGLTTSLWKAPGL

| Molecule | inhibition at 50 µM |
| --- | --- |
| Clc1ccc(C(Cn2ccnc2)OCc2ccsc2Cl)c(Cl)c1 (stereo not shown) [TIOCONAZOLE] | 2% |
| O=c1oc2cc(O)ccc2s1 [TIOXOLONE] | 88% |
| NC[C@H]1O[C@H](O[C@H]2[C@H](O)[C@@H](O[C@H]3O[C@H](CO)[C@@H](O)[C@H](N)[C@H]3O)[C@H](N)C[C@@H]2N)[C@H](N)C[C@@H]1O [TOBRAMYCIN] | 0% |
| CCOC(=O)NNc1nncc2ccccc12 [TODRALAZINE HYDROCHLORIDE] | 2% |
| Cc1c(Cl)cccc1Nc1ccccc1C(=O)O [TOLFENAMIC ACID] | 97% |
| Cc1ccc(C(=O)c2ccc(CC(=O)O)n2C)cc1 [TOLMETIN SODIUM] | 1% |
| C[C@H]1CC[C@]2(NC1)O[C@H]1C[C@H]3[C@@H]4CC[C@H]5C[C@@H](O[C@@H]6O[C@H](CO)[C@H](O[C@@H]7O[C@H](CO)[C@@H](O)[C@H](O[C@@H]8OC[C@@H](O)[C@H](O)[C@H]8O)[C@H]7O[C@@H]7O[C@H](CO)[C@@H](O)[C@H](O)[C@H]7O)[C@H](O)[C@H]6O)CC[C@]5(C)[C@H]4CC[C@]3(C)[C@H]1[C@@H]2C [TOMATINE] | 2% |
| CC1(C)O[C@@H]2[C@@H](CO[C@@]3(COS(N)(=O)=O)OC(C)(C)O[C@@H]23)O1 [TOPIRAMATE] | 1% |
| CC[C@@]1(O)C(=O)OCc2c1cc1n(c2=O)Cc2cc3c(CN(C)C)c(O)ccc3nc2-1 [TOPOTECAN HYDROCHLORIDE] | 0% |
| Cc1ccc(S(=O)(=O)NCl)cc1 [TOSYL[…]] | 3% |
| CC(=O)Oc1ccc(/C=C/c2cc(OC(C)=O)cc(OC(C)=O)c2)cc1 [TRIACETYLRESVERATROL] | 1% |
| C[C@]12C=CC(=O)C=C1CC[C@H]1[C@@H]3C[C@@H](O)[C@](O)(C(=O)CO)[C@@]3(C)C[C@H](O)[C@@]12F [TRIAMCINOLONE] | 11% |
| NS(=O)(=O)c1cc2c(cc1Cl)NC(C(Cl)Cl)NS2(=O)=O (stereo not shown) [TRICHLORMETHIAZIDE] | 1% |
| Oc1cc(Cl)ccc1Oc1ccc(Cl)cc1Cl [TRICLOSAN] | 2% |
| CN(C)CCCN1c2ccccc2Sc2ccc(C(F)(F)F)cc21 [TRIFLUPROMAZINE HYDROCHLORIDE] | 122% |
| COc1cc(Cc2cnc(N)nc2N)cc(OC)c1OC [TRIMETHOPRIM] | 0% |
| CC(CN(C)C)CN1c2ccccc2CCc2ccccc21 (stereo not shown) [TRIMIPRAMINE MALEATE] | 111% |
| CN(C)CCN(Cc1ccccc1)c1ccccn1 [TRIPELENNAMINE CITRATE] | 2% |
| Cc1c(C)c2c(c(C)c1O)CCC(C)(C(=O)O)O2 (stereo not shown) [TROLOX] | 0% |
| N[C@@H](Cc1ccc(O)cc1)C(=O)O [TYROSINE] | 1% |
| COC1=C(OC)C(=O)C(C/C=C(\C)CC/C=C(\C)CC/C=C(\C)CC/C=C(\C)CC/C=C(\C)CC/C=C(\C)CC/C=C(\C)CC/C=C(\C)CC/C=C(\C)CCC=C(C)C)=C(C)C1=O [UBIDECARENEONE] | 1% |
| C=CCCCCCCCCC(=O)O [UNDECYLENIC ACID] | 1% |
| COc1ccccc1N1CCN(CCCNc2cc(=O)n(C)c(=O)n2C)CC1 [URAPIDIL HYDROCHLORIDE] | 1% |
| CC(=O)c1c(O)c(C)c(O)c2c1OC1=CC(=O)C(C(C)=O)C(=O)C12C (stereo not shown) [USNIC ACID] | 204% |
| CCC(C)C(=O)O[C@@H]1C[C@@]2(C)[C@H](c3ccoc3)OC(=O)CC23OC2(C)O[C@]14[C@]1(C)[C@@H](CC(=O)OC)C5(C)CC1(O)[C@](O)(C5OC(=O)C1(C)OC1C)[C@@H](OC(C)=O)[C@]34O2 (stereo partly shown) [UTILIN] | 1% |
| CC(C)[C@H](N)C(=O)OCCOCn1cnc2c(=O)[nH]c(N)nc21 [VALACYCLOVIR HYDROCHLORIDE] | 2% |
| CCCCC(=O)Oc1ccccc1C(=O)O [VALERYL SALYCILATE] | 1% |

| Molecule | inhibition at 50 µM |
| --- | --- |
| CCCC(CCC)C(=O)O [VALPROATE SODIUM] | 0% |
| CN[C@H](CC(C)C)C(=O)N[C@H]1C(=O)N[C@@H](CC(N)=O)C(=O)N[C@H]2C(=O)N[C@H]3C(=O)N[C@H](C(=O)N[C@H](C(=O)O)c4cc(O)cc(O)c4-c4cc3ccc4O)[C@H](O)c3ccc(c(Cl)c3)Oc3cc2cc(c3O[C@@H]2O[C@H](CO)[C@@H](O)[C@H](O)[C@H]2O[C@H]2C[C@](C)(N)[C@H](O)[C@H](C)O2)Oc2ccc(cc2Cl)[C@H]1O [VANCOMYCIN HYDROCHLORIDE] | 0% |
| CCCc1nc(C)c2c(=O)[nH]c(-c3cc(S(=O)(=O)N4CCN(CC)CC4)ccc3OCC)nn12 [VARDENAFIL HYDROCHLORIDE] | 1% |
| CC(=O)O[C@H]1C[C@@H]2CC[C@@H]3[C@H](CC[C@@]4(C)[C@H]3C[C@H]([N+]3(C)CCCCC3)[C@@H]4OC(C)=O)[C@@]2(C)C[C@@H]1N1CCCCC1 [VECURONIUM BROMIDE] | 1% |
| COc1ccc(CCN(C)CCCC(C#N)(c2ccc(OC)c(OC)c2)C(C)C)cc1OC (stereo not shown) [VERAPAMIL HYDROCHLORIDE] | 1% |
| OC1CCCCC1N1CCC(c2ccccc2)CC1 (stereo not shown) [VESAMICOL HYDROCHLORIDE] | 1% |
| Nc1ncnc2c1ncn2[C@@H]1O[C@H](CO)[C@@H](O)[C@@H]1O [VIDARABINE] | 0% |
| C=CC(N)CCC(=O)O (stereo not shown) [VIGABATRIN] | 1% |
| O=c1c2ccccc2oc2ccccc12 [XANTHONE] | 1% |
| Nc1nc(=O)c2[nH]c(=O)cnc2[nH]1 [XANTHOPTERIN] | 2% |
| COc1cc(O)c(C(C)=O)c(OC)c1 [XANTHOXYLIN] | 0% |
| Cc1cccc(C)c1N=C1NCCCS1 [XYLAZINE] | 0% |
| Cc1cc(C(C)(C)C)cc(C)c1CC1=NCCN1 [XYLOMETAZOLINE HYDROCHLORIDE] | 1% |
| Cc1cn([C@H]2C[C@H](N=[N+]=[N-])[C@@H](CO)O2)c(=O)[nH]c1=O [ZIDOVUDINE [AZT], ZIDOVUDINE] | 36% |
| CC(C)/C(O)=C1/C(=O)O[C@@H](c2ccoc2)[C@]2(C)C(O)[C@@H](O)[C@@]34OC5(C)OC67CC(C)(C(O)[C@]6(O)[C@@H](O)[C@]3(O5)C12)[C@H](CC(=O)O)[C@]74C (stereo partly shown) [[…] OF BUSSEIN] | 1% |
| CC(C)=CCCC1(C)C=Cc2c(O)c3c(c(CC=C(C)C)c2O1)OC12C(=CCCC1C(C)(C)O[C@@]2(C/C=C(\C)C(=O)O)C(=O)O)C3=O (stereo partly shown) [[…]] | 75% |
| CC(C)NNC(=O)c1ccncc1 [[…]] | 0% |
| CCCCCC(=O)Cc1cc(O)cc(O)c1C(=O)Oc1cc(CC(=O)CCCCC)c(C(=O)O)c(OC)c1 [[…]] | 0% |
| COC(=O)CC1C(C)(C)C(OC(C)=O)[C@@H]2[C@@H](OC(C)=O)[C@]34O[C@@]2(O)[C@]1(C)C3CC[C@]1(C)C4=CC(=O)O[C@H]1c1ccoc1 (stereo partly shown) [[…]] | 2% |
| COc1cc(-c2coc3cc(O)c(OC)c(O)c3c2=O)cc(O)c1OC [[…]] | 5% |
| Cc1cc(O)c(C=O)c2c1C(=O)Oc1c(C)c(O)c3c(c1O2)C(O)OC3=O (stereo not shown) [[…]] | 145% |
| O=C(/C=C/C(=O)Oc1ccccc1C(=O)O)Oc1ccccc1C(=O)O [[…]] | 2% |
| N#C/C(=C\c1cccc(O)c1)C(=O)O [alpha-CYANO-3-HYDROXYCINNAMIC ACID] | 2% |
| N#C/C(=C\c1ccc(O)cc1)C(=O)O [alpha-CYANO-4-HYDROXYCINNAMIC ACID] | 1% |
| CC1=C(/C=C/C(C)=C/C=C/C(C)=C/C=C/C=C(C)/C=C/C=C(C)/C=C/C2=C(C)CCCC2(C)C)C(C)(C)CCC1 [beta-CAROTENE] | 1% |
| C/C=C(\C)C(=O)O[C@H]1[C@H](OC(C)=O)[C@@]2(CO)C(CC1(C)C)C1=CC[C@@H]3[C@@]4(C)CC[C@H](O[C@@H]5O[C@H](C(=O)O)[C@@H](O[C@@H]6O[C@H](CO)[C@@H](O)[C@H](O)[C@H]6O)[C@H](O)[C@H]5O[C@@H]5O[C@H](CO)[C@@H](O)[C@H](O)[C@H]5O)[C@H](CO)C4CC[C@@]3(C)[C@@]1(C)C[C@H]2O (stereo partly drawn) [beta-ESCIN] | 129% |

Same assay, conditions: 50 µM

| Molecule | Inhibition (%) |
| --- | --- |
| CN(C)CCOc1ccc(/C(=C(/CCCl)c2ccccc2)c2ccccc2)cc1 [TOREMIPHENE CITRATE] | 138 |
| Cl.Cl.NCCNCCNCCN [TRIENTINE HYDROCHLORIDE] | 13 |
| O=C([O-])CN(CCN(CC(=O)[O-])CC(=O)O)CC(=O)[O-].[Na+].[Na+].[Na+] [TRISODIUM ETHYLENEDIAMINE TETRACETATE] | 1 |
| COc1cc2c3cc1Oc1cc(ccc1O)C[C@@H]1c4c(cc(OC)c(O)c4Oc4ccc(cc4)C[C@@H]3N(C)CC2)CC[N+]1(C)C.Cl.O.O.O.O.O.[Cl-] [TUBOCURARINE CHLORIDE] | 0 |
| CC[C@H]1OC(=O)C[C@@H](O)[C@H](C)[C@@H](O[C@@H]2O[C@H](C)[C@@H](O[C@H]3C[C@@](C)(O)[C@@H](O)[C@H](C)O3)[C@H](N(C)C)[C@H]2O)[C@@H](CC=O)C[C@@H](C)C(=O)/C=C/C(C)=C/[C@@H]1CO[C@@H]1O[C@H](C)[C@@H](O)[C@@H](OC)[C@H]1OC [TYLOSIN TARTRATE] | 1 |
| O=c1ccn([C@@H]2O[C@H](COP(=O)([O-])OP(=O)([O-])OP(=O)([O-])O)[C@@H](O)[C@H]2O)c(=O)[nH]1.[Na+].[Na+].[Na+] [URIDINE TRIPHOSPHATE TRISODIUM] | 1 |
| O.O=C(O)[C@@H]1[C@H]2C[C@H]3c4[nH]c5ccccc5c4CCN3C[C@@H]2CC[C@@H]1O [YOHIMBIC ACID HYDRATE] | 1 |
| C=CCCCCCCCCC(=O)[O-].C=CCCCCCCCCC(=O)[O-].[Zn+2] [ZINC UNDECYLENATE] | 21 |
| CC(=O)O[C@@H]1CC2C(C)(C)[C@H](O)CC[C@]2(C)C2CC[C@@]3(C)[C@H](c4ccoc4)OC(=O)C4OC43[C@@]21C (stereo partly drawn) [alpha-DIHYDROGEDUNOL] | 1 |
| COc1cc2c(cc1OC)[C@@H]1C(=O)c3c(O)cc4c(c3O[C@@H]1CO2)C=CC(C)(C)O4 [alpha-TOXICAROL] | 10 |
| NC(C(=O)O)C(O)C(=O)O (stereo not drawn) [d.l-threo-3-HYDROXYASPARTIC ACID] | 3 |
| CC(=O)Oc1cccc(C)c1 [meta-CRESYL ACETATE] | 1 |
| AGELASINE | 102 |
| ASARININ (-) | 1 |
| BACITRACIN | 5 |
| BENZALKONIUM CHLORIDE | 121 |
| BERBAMINE HYDROCHLORIDE | 1 |

From publication PMC6627609, “Targeting Quorum Sensing: High-Throughput Screening to Identify Novel LsrK Inhibitors” (International Journal of Molecular Sciences, 2019)
